Measured values taken from patent US20250169495A1, “COMPOSITIONS AND METHODS FOR CONTROLLING DROSOPHILA FLIES” (Rutgers, The State University of New Jersey, priority 2023, published 2025).

What was measured:
[1] = test system: male and female Drosophila suzukii antennae; test: Electroantennogram (EAG) assay; settings: for antennal (EAG) response: 0.001-10 mg doses in hexane, N=10; for strength of EAG response compared among treatments: 0.001-10 mg doses
Description: Electroantennogram (EAG) assays were conducted to determine the antennal response of sexually mature male and female D. suzukii to ethyl butanoate, ethyl (E)-but-2-enoate, and 2-pentylfuran. The antennal responses of male and female D. suzukii to each compound were tested at five doses (0.001 mg, 0.01 mg, 0.1 mg, 1 mg, and 10 mg) diluted in hexane. The stimulus cartridge preparations, antennal preparations, and EAG apparatus used were similar to those previously described in the literature. Stimulus applicators consisted of a 14.5-cm-long glass Pasteur pipette containing 20 μL of each volatile dose (or hexane control) pipetted onto a 6×0.5-cm strip of filter paper. The applicators containing the impregnated filter paper were placed under the fume hood for 2 min to allow the hexane to evaporate. For the recording and base electrodes, a silver wire was inserted into a drawn capillary tube filled with phosphate-buffered saline (NaCl, 4 g; NA2HPO4, 0.57 g; KH2PO4, 0.1 g; KCl, 0.1 g in 500 ml distilled water). To attach the base electrode to the fly, the fly's abdomen was removed, and the sharp tip of the saline-filled capillary tube was pulled directly into the thoracic cavity. Once the fly preparation was mounted, the recording electrode was carefully moved toward the antenna using a micromanipulator until the antenna touched the pool of saline solution on the recording electrode. Antennal preparations were exposed to a constant stream of charcoal-filtered and humidified air at a rate of 1.5 l/min.
The EAG apparatus consisted of an IDAC-02 interface board for data acquisition and used Syntech software (Syntech Ltd., Hilversum, The Netherlands) for recording, storing, and quantifying EAG responses. Antennal preparations were primed with 1 mg of acetoin, a known attractant and antennally active compound, to ensure that the antennae were prepared correctly and responsive (positive control). Then, the antennae were exposed to a hexane control, followed by exposure to increasing doses of one of the volatiles. Each antenna was exposed to four rounds of each dose of a single compound before being discarded. Six antennae were tested daily: three from males and three from females. Test and control compounds were applied at 10 second(s) intervals at a pulse rate of 0.5 s, with a 1-min interval between each stimulus. Maximum amplitudes of depolarizations were measured (in millivolts) for each compound with the response from the hexane-only controls subtracted from the other doses to normalize the antennal response. In total, each dose of each compound was replicated 10 times for each sex.
To analyze the effect of dose of the three repellents on D. suzukii antennal responses, a generalized linear model (GLM) was used with a Poisson distribution and a log link function in SPSS Statistics 23.0 (IBM Corp, Armonk, NY, USA). The model included ‘Treatment’ (ethyl butanoate, ethyl (E)-but-2-enoate, and 2-pentylfuran), ‘Dose’, ‘Sex’, and their interactions as independent variables. This analysis, when significant, was followed by post hoc Bonferroni tests (α=0.05) to determine individual differences among groups. Prior to analysis, EAG data were normalized relative to the response to the hexane control.

[2] = Emission rate from polyethylene sachets, field cages; format: physicochemical; settings: field cage; sachets weighed before and 3 days after deployment
From the text: Twenty-four hours after deploying the sachets, 120 flies (approximately 60 males and 60 females) were released into each cage at 18:00 hrs (N=120 flies×4 treatments×4 replicates=1,920 total flies). To ensure even distribution within the cages, 30 flies were released at four equidistant points between the bushes. A pre-sampling of the berries, conducted before the flies were released, confirmed the absence of any infestation. Berries were then collected 1-, 2-, and 3-days post-treatment. From every other bush (starting at the focal bush) in the cage, 50 berries from the top half and 50 from the bottom half were collected into two separate 236.6 mL deli containers lined with two cotton pads. From each berry sample, a random subsample of 10 berries were examined and egg counts recorded before being returned to the original container. The blueberries were incubated on a light bench in the laboratory for up to two weeks, as previously described, and adult emergence was recorded. The sachets were weighed before deployment and 3 days after deployment to measure the emission rates of each compound. Finally, the emission rates of compounds in the semi-field and field cage studies were calculated by subtracting the final weight of the sachets from the initial weight and dividing by the time interval (24 h or 3 days). These rates were then compared across repellent treatments using ANOVA, with Tukey pairwise comparisons conducted when significant differences were found.

| emission rate (mean±SE) [2] [mg/day] | SMILES | antennal (EAG) response [1] | strength of EAG response compared among treatments [1] |
| --- | --- | --- | --- |
| 559.73 ± 23.54 | CCCCCc1ccco1 [2-pentylfuran, reference compound] | dose-dependent antennal responses |  |
| 679.23 ± 17.73 | C/C=C/C(=O)OCC [ethyl (E)-but-2-enoate] | dose-dependent antennal responses | stronger antennal responses than 2-pentylfuran |
| 697.97 ± 7.96 | CCCC(=O)OCC [ethyl butanoate] | dose-dependent antennal responses | stronger antennal responses than 2-pentylfuran |
